Reference: US10793568B2, “Hormone receptor modulators for treating metabolic conditions and disorders” (ARDELYX, INC., priority 2016, dated 2020)

Legend:
[1] = molecular target: ligand binding domain of human FXR (Homo sapiens (Human), UniProt Q96RI1); assay: FXR ligand binding assay (LanthaScreen TR-FRET, SRC2-2 peptide recruitment); conditions: for pEC50: -log EC50, concentration required to produce 50% activation; for Emax: extent of activation relative to GW4064, read-out: % Efficacy
[2] = molecular target: human Farnesoid X receptor ligand-binding domain/Gal4 DNA binding domain chimera (Homo sapiens (Human), UniProt Q96RI1); assay: Cell-based assay of FXR activation (FXR-UAS-bla HEK 293T beta-lactamase reporter); conditions: cellular FXR beta-lactamase reporter assay; for EC50: FXR-UAS-bla HEK 293T cells, 16 h, pEC50 = -log EC50; for Emax: HEK-293T, extent of activation relative to GW4064, read-out: % Efficacy
human Farnesoid X receptor ligand-binding domain/Gal4 DNA binding domain chimera, sequence (Q96RI1 262-486, change not shown): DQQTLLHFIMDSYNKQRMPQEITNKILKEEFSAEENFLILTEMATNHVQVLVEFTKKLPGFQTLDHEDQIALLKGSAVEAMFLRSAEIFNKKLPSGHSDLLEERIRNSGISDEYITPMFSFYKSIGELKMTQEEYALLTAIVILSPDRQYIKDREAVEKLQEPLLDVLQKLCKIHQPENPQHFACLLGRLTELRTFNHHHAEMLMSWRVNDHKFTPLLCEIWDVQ
human Farnesoid X receptor ligand-binding domain/Gal4 DNA binding domain chimera, sequence (P04386 1-147 partner): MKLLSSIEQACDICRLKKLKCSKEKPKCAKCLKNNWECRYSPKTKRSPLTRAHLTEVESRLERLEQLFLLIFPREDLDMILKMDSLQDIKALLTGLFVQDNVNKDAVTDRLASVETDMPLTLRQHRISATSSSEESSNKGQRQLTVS
In short: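 HEK 293T cells stably expressing a Gal4-fused human FXR LBD and a UAS-driven beta-lactamase reporter were incubated with serially diluted compounds for 16 h at 37 °C in phenol red-free DMEM with 2% charcoal-stripped FBS. CCF4 FRET read-out: excitation 409 nm, emission 447 nm. pEC50 comes from a 3-parameter logistic fit, and efficacy is given as % of GW4064.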

ligand binding domain of human FXR, sequence (Q96RI1 262-486): as the sequence (Q96RI1 262-486, change not shown) above

Compound	pEC50 [1]	Emax [1] [%]	EC50 [2] [nM]	Emax [2] [%]
O=C(O)c1cc(F)c2nc(N3C[C@@H]4C[C@H]3C[C@H]4OCc3c(-c4ccccc4O)noc3C3CC3)sc2c1 [Compound I-291, 2-((1S,4S,5R)-5-((5-cyclopropyl-3-(2-hydroxyphenyl)isoxazol-4-yl)methoxy)-2-azabicyclo[2.2.1]heptan-2-yl)-4-fluorobenzo[d]thiazole-6-carboxylic acid]	6.1	120	< 31.6	
O=C(O)c1cc(F)c2nc(N3C[C@@H]4C[C@H]3C[C@H]4OCc3c(-c4cccc(O)c4)noc3C3CC3)sc2c1 [Compound I-292, 2-((1S,4S,5R)-5-((5-cyclopropyl-3-(3-hydroxyphenyl)isoxazol-4-yl)methoxy)-2-azabicyclo[2.2.1]heptan-2-yl)-4-fluorobenzo[d]thiazole-6-carboxylic acid]	6.5	120	< 31.6	
O=C(O)c1cc(F)c2nc(N3C[C@@H]4C[C@H]3C[C@H]4OCc3c(-c4ccc(O)cc4)noc3C3CC3)sc2c1 [Compound I-293, 2-((1S,4S,5R)-5-((5-cyclopropyl-3-(4-hydroxyphenyl)isoxazol-4-yl)methoxy)-2-azabicyclo[2.2.1]heptan-2-yl)-4-fluorobenzo[d]thiazole-6-carboxylic acid]	>4.5		< 31.6	
CCc1cc(C(=O)O)cc2sc(N3C(=O)[C@@H]4C[C@H]3C[C@H]4OCc3c(-c4c(Cl)cccc4Cl)noc3C3CC3)nc12 [Compound I-294, 2-[(1S,4R,5R)-5-{[5-cyclopropyl-3-(2,6-dichlorophenyl)-1,2-oxazol-4-yl]methoxy}-3-oxo-2-azabicyclo[2.2.1]heptan-2-yl]-4-ethyl-1,3-benzothiazole-6-carboxylic Acid]	8.2	82	2.51	104
O=C(O)c1cc(C2CC2)c2nc(N3C(=O)[C@@H]4C[C@H]3C[C@H]4OCc3c(-c4c(Cl)cccc4Cl)noc3C3CC3)sc2c1 [Compound I-295, 4-cyclopropyl-2-((1S,4R,5R)-5-((5-cyclopropyl-3-(2,6-dichlorophenyl)isoxazol-4-yl)methoxy)-3-oxo-2-azabicyclo[2.2.1]heptan-2-yl)benzo[d]thiazole-6-carboxylic acid]	8.2	98	1	105
O=C(O)c1cc(C2CCC2)c2nc(N3C(=O)[C@@H]4C[C@H]3C[C@H]4OCc3c(-c4c(Cl)cccc4Cl)noc3C3CC3)sc2c1 [Compound I-296, 4-cyclobutyl-2-((1S,4R,5R)-5-((5-cyclopropyl-3-(2,6-dichlorophenyl)isoxazol-4-yl)methoxy)-3-oxo-2-azabicyclo[2.2.1]heptan-2-yl)benzo[d]thiazole-6-carboxylic acid]	7.6	90	10	109
O=C(O)c1cc(OC2CC2)c2nc(N3C(=O)[C@@H]4C[C@H]3C[C@H]4OCc3c(-c4c(Cl)cccc4Cl)noc3C3CC3)sc2c1 [Compound I-297, 4-cyclopropoxy-2-((1S,4R,5R)-5-((5-cyclopropyl-3-(2,6-dichlorophenyl)isoxazol-4-yl)methoxy)-3-oxo-2-azabicyclo[2.2.1]heptan-2-yl)benzo[d]thiazole-6-carboxylic acid]	9	77	0.316	110
O=C(O)c1cc(C2CCOCC2)c2nc(N3C(=O)[C@@H]4C[C@H]3C[C@H]4OCc3c(-c4c(Cl)cccc4Cl)noc3C3CC3)sc2c1 [Compound I-298, 2-((1S,4R,5R)-5-((5-cyclopropyl-3-(2,6-dichlorophenyl)isoxazol-4-yl)methoxy)-3-oxo-2-azabicyclo[2.2.1]heptan-2-yl)-4-(tetrahydro-2H-pyran-4-yl)benzo[d]thiazole-6-carboxylic acid]		133	7.94	112
O=C(O)c1cc(C2CCOC2)c2nc(N3C(=O)[C@@H]4C[C@H]3C[C@H]4OCc3c(-c4c(Cl)cccc4Cl)noc3C3CC3)sc2c1 (stereo partly drawn) [Compound I-299, 2-((1S,4R,5R)-5-((5-cyclopropyl-3-(2,6-dichlorophenyl)isoxazol-4-yl)methoxy)-3-oxo-2-azabicyclo[2.2.1]heptan-2-yl)-4-(tetrahydrofuran-3-yl)benzo[d]thiazole-6-carboxylic acid]	8	112	3.98	108
O=C(O)c1cc(C2CC3(CCOCC3)C2)c2nc(N3C(=O)[C@@H]4C[C@H]3C[C@H]4OCc3c(-c4c(Cl)cccc4Cl)noc3C3CC3)sc2c1 [Compound I-300, 2-((1S,4R,5R)-5-((5-cyclopropyl-3-(2,6-dichlorophenyl)isoxazol-4-yl)methoxy)-3-oxo-2-azabicyclo[2.2.1]heptan-2-yl)-4-(7-oxaspiro[3.5]nonan-2-yl)benzo[d]thiazole-6-carboxylic acid]	1	82	100	117
O=C(O)c1cc(O[C@H]2CCOC2)c2nc(N3C(=O)[C@@H]4C[C@H]3C[C@H]4OCc3c(-c4c(Cl)cccc4Cl)noc3C3CC3)sc2c1 [Compound I-302, 2-((1S,4R,5R)-5-((5-cyclopropyl-3-(2,6-dichlorophenyl)isoxazol-4-yl)methoxy)-3-oxo-2-azabicyclo[2.2.1]heptan-2-yl)-4-(((S)-tetrahydrofuran-3-yl)oxy)benzo[d]thiazole-6-carboxylic acid]	8.4	106	39.8	114
O=C(O)CCc1ccc(N2C(=O)[C@@H]3C[C@H]2C[C@H]3OCc2c(-c3c(Cl)cccc3Cl)noc2C2CC2)cc1 [Compound I-303, 3-{4-[(1S,4R,5R)-5-{[5-cyclopropyl-3-(2,6-dichlorophenyl)-1,2-oxazol-4-yl]methoxy}-3-oxo-2-azabicyclo[2.2.1]heptan-2-yl]phenyl}propanoic Acid]	7.4	132	6.31	98
O=C(O)CCc1ccc(N2C(=O)[C@@H]3C[C@H]2C[C@H]3OCc2c(-c3c(Cl)cccc3Cl)noc2C2CC2)c(F)c1 [Compound I-304, 3-{4-[(1S,4R,5R)-5-{[5-cyclopropyl-3-(2,6-dichlorophenyl)-1,2-oxazol-4-yl]methoxy}-3-oxo-2-azabicyclo[2.2.1]heptan-2-yl]-3-fluorophenyl}propanoic Acid]	6.6	118	100	107
O=C(O)CCc1ccc(N2C(=O)[C@@H]3C[C@H]2C[C@H]3OCc2c(-c3c(Cl)cccc3Cl)noc2C2CC2)cc1F [Compound I-305, 3-{4-[(1S,4R,5R)-5-{[5-cyclopropyl-3-(2,6-dichlorophenyl)-1,2-oxazol-4-yl]methoxy}-3-oxo-2-azabicyclo[2.2.1]heptan-2-yl]-2-fluorophenyl}propanoic Acid]	7.5	121	3.16	98
O=C(O)c1ccc(N2C(=O)[C@@H]3C[C@H]2C[C@H]3OCc2c(-c3c(F)cccc3Cl)noc2C2CC2)cc1 [Compound I-306, 4-[(1S,4R,5R)-5-{[3-(2-chloro-6-fluorophenyl)-5-cyclopropyl-1,2-oxazol-4-yl]methoxy}-3-oxo-2-azabicyclo[2.2.1]heptan-2-yl]benzoic Acid]	8.2	171	2.51	108
Cc1cccc(F)c1-c1noc(C2CC2)c1CO[C@@H]1C[C@@H]2C[C@H]1C(=O)N2c1ccc(C(=O)O)cc1 [Compound I-307, 4-[(1S,4R,5R)-5-{[5-cyclopropyl-3-(2-fluoro-6-methylphenyl)-1,2-oxazol-4-yl]methoxy}-3-oxo-2-azabicyclo[2.2.1]heptan-2-yl]benzoic Acid]	7.4	154	10	110
Cc1cccc(C)c1-c1noc(C2CC2)c1CO[C@@H]1C[C@@H]2C[C@H]1C(=O)N2c1ccc(C(=O)O)cc1 [Compound I-308, 4-[(1S,4R,5R)-5-{[5-cyclopropyl-3-(2,6-dimethylphenyl)-1,2-oxazol-4-yl]methoxy}-3-oxo-2-azabicyclo[2.2.1]heptan-2-yl]benzoic Acid]	7.6	150	3.98	99
Cc1cccc(Cl)c1-c1noc(C2CC2)c1CO[C@@H]1C[C@@H]2C[C@H]1C(=O)N2c1ccc(C(=O)O)cc1 [Compound I-309, 4-[(1S,4R,5R)-5-{[3-(2-chloro-6-methylphenyl)-5-cyclopropyl-1,2-oxazol-4-yl]methoxy}-3-oxo-2-azabicyclo[2.2.1]heptan-2-yl]benzoic Acid]	8.2	157	1.58	104
CC(C)c1cccc(F)c1-c1noc(C2CC2)c1CO[C@@H]1C[C@@H]2C[C@H]1C(=O)N2c1ccc(C(=O)O)cc1 [Compound I-310, 4-[(1S,4R,5R)-5-({5-cyclopropyl-3-[2-fluoro-6-(propan-2-yl)phenyl]-1,2-oxazol-4-yl}methoxy)-3-oxo-2-azabicyclo[2.2.1]heptan-2-yl]benzoic Acid]	7.6	155	7.94	115
O=C(O)c1ccc(N2C(=O)[C@@H]3C[C@H]2C[C@H]3OCc2c(-c3c(F)cccc3C3CC3)noc2C2CC2)cc1 [Compound I-311, 4-[(1S,4R,5R)-5-{[5-cyclopropyl-3-(2-cyclopropyl-6-fluorophenyl)-1,2-oxazol-4-yl]methoxy}-3-oxo-2-azabicyclo[2.2.1]heptan-2-yl]benzoic Acid]	7.8	148	3.98	105
